The values below come from patent US7541367B2, “3-benzoimidazolyl-pyrazolopyridines useful in treating kinase disorders” (Janssen Pharmaceutica, N.V., priority 2005, dated 2009).

The subject of one experiment is HCT-116 colon carcinoma. The experiment can be described thus: Cell Proliferation Inhibition Assay (14C-thymidine incorporation), HCT-116.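 Note: proliferation measured as methyl 14C-thymidine uptake into new DNA, counted in 96-well scintillating microplates, compared with DMSO-only control wells.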 The experiment is classed as cell-based. The conditions noted are these: Homo sapiens, HCT-116, HCT-116 cells.
A further experiment has as its system A375 malignant melanoma. The experiment can be described thus: Cell Proliferation Inhibition Assay (14C-thymidine incorporation), A375.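 Note: proliferation measured by radiolabelled thymidine uptake into new DNA, counted in scintillating 96-well plates, compound-treated wells compared with DMSO-only control wells.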 In kind it is cell-based. The conditions noted are these: Homo sapiens, A-375, A375 cells.
For experiment [1], the system named is HeLa cervical adenocarcinoma. The experiment can be described thus: Cell Proliferation Inhibition Assay (14C-thymidine incorporation), HeLa.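 Note: test compound in DMSO added to cells seeded in scintillating 96-well plates, DMSO-only wells as control, uptake of methyl 14C-thymidine into new DNA counted.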 The conditions noted are these: Homo sapiens, HeLa, HeLa cells. The experiment is classed as cell-based.
The target in a further experiment is T1, HER2 (Homo sapiens, UniProt P04626).
T1 construct: GST (Glutathione-S-Transferase) (N); HIS6 (N); thrombin cleavage site (N); purchased Proqinase, Freiburg, Germany
The experiment can be described thus: HER2 kinase screening assay (33P-ATP FlashPlate).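 Note: Biotin-poly(GT) 4:1 peptide captured on streptavidin FlashPlate, 33P transfer from γ-ATP read by scintillation counting, lower incorporation means inhibition, 1% DMSO final, 100 µL reaction.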 The experiment is classed as biochemical. The note with it: GST-HIS6 HER-2 aa 679 to 1255; 10 μM ATP; 1 hr at 30° C.

A further experiment deals with T2, Lyn kinase (Homo sapiens, UniProt P07948).
T2 construct: purchased Upstate Biotechnology, Lake Placid, N.Y
The experiment can be described thus: Lyn Kinase Assay. In kind it is biochemical. The note with it: 5 μM ATP. The procedure: Test compound in 100% DMSO (0.5 μL) was added to the appropriate wells. Diluted Lyn kinase (human) (Accession Number EMBL M16038) (Upstate Biotechnology, Lake Placid, N.Y.) (diluted in a buffer consisting of 50 mM Tris at pH 7.5, 0.1 mM EGTA, Sodium Vanadate (0.1 mM), β-mercaptoethanol (0.1%) and 1 mg/mL bovine serum albumin) (2.5 μL) was added to the wells to initiate the reactions.
The reaction plates were incubated at 30° C. for 40 min. The reaction was terminated by the addition of a 3% phosphoric acid solution (5 μL). The reaction product (10 μL) was spotted onto a P30 filtermat and washed for 5 minutes in phosphoric acid (75 mM). The wash sequence was repeated two more times, followed with one final wash in methanol. The plates were then dried, sealed and read on the TopCount scintillation counter after adding 30 μL scintillation fluid.
(§1) A maximum and minimum signal for the assay was determined on each plate. The percent inhibition of a test compound was calculated according to the formula: […]
For a series of test concentrations, the IC50 was derived by graphing percent inhibition against the log of the concentrations tested for a given compound with results shown in Table 3
(§2) For compounds with multiple values, each value represents a separate assay result.

A further experiment concerns the target T3, RET (Homo sapiens, UniProt P07949).
T3 construct: polyhistidine (N)
T3 sequence (P07949 658-1114 limits assumed): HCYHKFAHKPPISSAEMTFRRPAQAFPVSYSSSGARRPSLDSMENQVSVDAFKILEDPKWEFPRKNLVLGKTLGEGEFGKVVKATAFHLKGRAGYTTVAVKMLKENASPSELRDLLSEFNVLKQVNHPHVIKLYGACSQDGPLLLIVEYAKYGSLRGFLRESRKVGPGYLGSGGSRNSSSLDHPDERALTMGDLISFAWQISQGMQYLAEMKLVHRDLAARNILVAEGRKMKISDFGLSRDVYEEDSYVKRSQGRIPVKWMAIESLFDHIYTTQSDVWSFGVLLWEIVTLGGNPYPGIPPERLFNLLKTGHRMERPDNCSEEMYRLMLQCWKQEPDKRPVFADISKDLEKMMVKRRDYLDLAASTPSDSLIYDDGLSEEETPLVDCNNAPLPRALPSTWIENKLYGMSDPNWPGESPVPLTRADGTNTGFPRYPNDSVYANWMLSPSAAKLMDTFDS
The experiment can be described thus: RET kinase screening assay (33P-ATP FlashPlate).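 Note: biotinylated peptide substrate captured on streptavidin FlashPlate, 33P phosphate transfer read by scintillation counting, 1% DMSO, lower incorporation means inhibition, percent relative to per-plate maximum and minimum signals.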 In kind it is biochemical. The conditions noted are these: human RET kinase domain; 10 μM ATP; 1 hr at 30° C.

The next experiment has as its target T4, c-Src kinase (Homo sapiens, UniProt P12931).
T4 construct: purchased Upstate Biotechnology, Lake Placid, N.Y
The experiment can be described thus: c-Src Kinase Assay. The experiment is classed as biochemical. The conditions noted are these: 5 μM ATP. The procedure:
A mixture of a 10× kinase buffer (80 mM MOPS at pH 7.0, 2 mM EDTA and 100 mM Magnesium Chloride), ATP (5 μM final from a 10 mM stock), a Cdc2 peptide […] (100 μM final from a 2.5 mM stock), γ-^33P ATP (10 μCi/μL stock) and water (for a total of 20 μL/well) was added to each well of a Streptavidin Flashplate.
Test compound in 100% DMSO (0.5 μL) was added to the appropriate wells. Diluted c-Src kinase (human) (Accession Number SWISS-PROT P12931) (Upstate Biotechnology, Lake Placid, N.Y.) (diluted in a buffer consisting of 20 mM MOPS at pH 7.0, 1 mM EDTA, β-mercaptoethanol (0.1%), Brij-35 (0.01%), glycerol (5%), and 1 mg/mL bovine serum albumin) (2.5 μL) was added to the wells to initiate the reactions. The reaction plates were incubated at 30° C. for 40 min. The reaction was terminated by the addition of a 3% phosphoric acid solution (5 μL). The reaction product (10 μL) was spotted onto a P30 filtermat and washed for 5 minutes in phosphoric acid (75 mM). The wash sequence was repeated two more times, followed with one final wash in methanol. The plates were then dried, sealed and read on the TopCount scintillation counter after adding 30 μL scintillation fluid.
as §1
For a series of test concentrations, the IC50 was derived by graphing percent inhibition against the log of the concentrations tested for a given compound with results shown in Table 2
as §2

Another experiment concerns the target T5, Aurora-A (Mus musculus, UniProt P97477).
T5 construct: polyhistidine (N)
T5 sequence (P97477 1-395): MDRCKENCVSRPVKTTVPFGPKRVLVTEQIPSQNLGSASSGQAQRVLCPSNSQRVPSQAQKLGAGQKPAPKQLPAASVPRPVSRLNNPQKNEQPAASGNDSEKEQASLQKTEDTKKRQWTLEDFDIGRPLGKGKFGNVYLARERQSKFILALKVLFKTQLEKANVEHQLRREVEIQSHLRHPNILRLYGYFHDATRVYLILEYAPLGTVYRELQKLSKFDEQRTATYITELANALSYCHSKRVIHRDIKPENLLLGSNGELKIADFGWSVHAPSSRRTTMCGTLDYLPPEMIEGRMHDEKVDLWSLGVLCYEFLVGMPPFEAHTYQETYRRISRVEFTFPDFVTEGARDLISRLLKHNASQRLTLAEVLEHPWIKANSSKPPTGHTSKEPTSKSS
Kind of experiment: Aurora-A kinase screening assay (33P-ATP FlashPlate).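 Note: His-tagged mouse Aurora-A phosphorylating a biotinylated peptide captured on streptavidin plates, read as 33P uptake by scintillation counting, 1% DMSO, inhibition scaled between per-plate maximum and minimum signals.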 The experiment is classed as biochemical. The conditions noted are these: 10 μM ATP, 1 hr at 30° C.

In another experiment the target is T6, CDK1 (Homo sapiens, UniProt P06493).
T6 construct: purchased New England Biolabs, Beverly, Mass; 6020; host or cells: insect cells
The experiment can be described thus: CDK-1 kinase screening assay (33P-ATP FlashPlate). The experiment is classed as biochemical. The conditions noted are these: human CDK1 with cyclin B; 10 μM ATP; 1 hr at 30° C.

Another experiment concerns the target T7, VEGF-R2 (Rattus norvegicus, UniProt O08775).
T7 construct: polyhistidine (N)
Kind of experiment: VEGF-R2 kinase screening assay (33P-ATP FlashPlate).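 Note: Read-out is ³³P incorporation from ³³P-γ-ATP into biotinylated peptide substrate captured on streptavidin FlashPlate, counted by scintillation, 1% DMSO final, inhibition scaled between per-plate maximum and minimum signals.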 The experiment is classed as biochemical. The note with it: rat VEGF-R2 kinase domain; 10 μM ATP; 1 hr at 30° C.

pIC50: −log10 of the molar value.

T2 sequence (P07948 whole entry): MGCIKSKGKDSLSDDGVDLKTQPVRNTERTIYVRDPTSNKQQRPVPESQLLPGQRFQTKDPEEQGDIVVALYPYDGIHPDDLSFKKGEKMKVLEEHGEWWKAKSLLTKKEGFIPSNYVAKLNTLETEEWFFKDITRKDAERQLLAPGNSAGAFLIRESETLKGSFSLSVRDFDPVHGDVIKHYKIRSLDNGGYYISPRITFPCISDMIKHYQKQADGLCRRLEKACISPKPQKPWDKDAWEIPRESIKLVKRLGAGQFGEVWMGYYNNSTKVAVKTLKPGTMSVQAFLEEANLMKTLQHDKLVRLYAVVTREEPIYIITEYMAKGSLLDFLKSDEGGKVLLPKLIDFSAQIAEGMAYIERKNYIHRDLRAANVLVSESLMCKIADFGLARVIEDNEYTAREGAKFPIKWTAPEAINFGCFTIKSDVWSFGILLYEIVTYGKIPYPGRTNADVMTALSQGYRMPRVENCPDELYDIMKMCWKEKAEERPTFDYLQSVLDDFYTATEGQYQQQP
T1 sequence (P04626 679-1255): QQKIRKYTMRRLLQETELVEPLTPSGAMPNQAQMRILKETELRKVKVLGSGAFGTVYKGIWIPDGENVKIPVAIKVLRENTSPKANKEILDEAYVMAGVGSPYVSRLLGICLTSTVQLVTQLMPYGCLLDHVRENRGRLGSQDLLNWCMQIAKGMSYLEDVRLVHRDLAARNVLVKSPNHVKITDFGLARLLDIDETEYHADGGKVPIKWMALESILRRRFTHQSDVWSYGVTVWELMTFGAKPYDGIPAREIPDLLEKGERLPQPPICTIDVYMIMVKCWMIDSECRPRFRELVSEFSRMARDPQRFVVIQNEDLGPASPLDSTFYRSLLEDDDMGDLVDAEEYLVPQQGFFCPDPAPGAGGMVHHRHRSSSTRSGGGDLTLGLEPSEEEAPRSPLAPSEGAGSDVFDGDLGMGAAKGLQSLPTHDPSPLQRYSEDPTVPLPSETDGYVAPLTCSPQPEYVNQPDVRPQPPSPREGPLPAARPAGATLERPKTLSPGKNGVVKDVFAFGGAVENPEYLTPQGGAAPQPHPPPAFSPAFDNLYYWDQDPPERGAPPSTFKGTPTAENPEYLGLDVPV
T7 sequence (O08775 786-1343): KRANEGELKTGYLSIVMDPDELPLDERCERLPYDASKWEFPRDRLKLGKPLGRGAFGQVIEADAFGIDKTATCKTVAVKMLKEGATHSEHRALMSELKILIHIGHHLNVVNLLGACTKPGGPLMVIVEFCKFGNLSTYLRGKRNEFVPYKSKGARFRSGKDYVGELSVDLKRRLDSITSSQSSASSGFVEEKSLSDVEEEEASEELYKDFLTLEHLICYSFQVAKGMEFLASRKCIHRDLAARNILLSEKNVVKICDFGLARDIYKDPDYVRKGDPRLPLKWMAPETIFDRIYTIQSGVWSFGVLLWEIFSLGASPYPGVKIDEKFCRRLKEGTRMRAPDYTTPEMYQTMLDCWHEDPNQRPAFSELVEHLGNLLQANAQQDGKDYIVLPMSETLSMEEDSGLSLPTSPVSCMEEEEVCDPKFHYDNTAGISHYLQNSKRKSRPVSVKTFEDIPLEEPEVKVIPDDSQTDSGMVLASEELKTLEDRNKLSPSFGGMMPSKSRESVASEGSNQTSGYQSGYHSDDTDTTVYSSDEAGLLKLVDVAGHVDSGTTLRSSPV
T6 sequence (P06493 whole entry): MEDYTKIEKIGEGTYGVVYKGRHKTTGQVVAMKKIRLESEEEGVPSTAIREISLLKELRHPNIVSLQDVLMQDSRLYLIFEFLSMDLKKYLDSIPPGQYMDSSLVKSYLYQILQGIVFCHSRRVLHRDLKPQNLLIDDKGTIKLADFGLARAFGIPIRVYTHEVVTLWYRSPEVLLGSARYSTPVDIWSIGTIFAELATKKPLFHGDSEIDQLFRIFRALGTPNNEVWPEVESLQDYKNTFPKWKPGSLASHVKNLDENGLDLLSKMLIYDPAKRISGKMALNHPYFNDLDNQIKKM
T6 sequence (P14635 whole entry partner): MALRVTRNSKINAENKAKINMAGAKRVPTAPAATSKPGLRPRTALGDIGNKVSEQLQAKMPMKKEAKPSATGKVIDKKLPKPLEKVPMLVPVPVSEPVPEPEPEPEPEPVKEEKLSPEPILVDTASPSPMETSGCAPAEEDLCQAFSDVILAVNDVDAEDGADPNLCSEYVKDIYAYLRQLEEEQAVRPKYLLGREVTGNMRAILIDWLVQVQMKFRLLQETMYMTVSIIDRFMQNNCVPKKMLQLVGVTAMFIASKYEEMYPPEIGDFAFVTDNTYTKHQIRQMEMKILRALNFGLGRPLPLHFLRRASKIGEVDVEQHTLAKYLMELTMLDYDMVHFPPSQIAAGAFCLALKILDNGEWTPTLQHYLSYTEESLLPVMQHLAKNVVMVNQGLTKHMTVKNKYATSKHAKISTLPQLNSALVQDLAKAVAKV
T4 sequence (P12931 whole entry): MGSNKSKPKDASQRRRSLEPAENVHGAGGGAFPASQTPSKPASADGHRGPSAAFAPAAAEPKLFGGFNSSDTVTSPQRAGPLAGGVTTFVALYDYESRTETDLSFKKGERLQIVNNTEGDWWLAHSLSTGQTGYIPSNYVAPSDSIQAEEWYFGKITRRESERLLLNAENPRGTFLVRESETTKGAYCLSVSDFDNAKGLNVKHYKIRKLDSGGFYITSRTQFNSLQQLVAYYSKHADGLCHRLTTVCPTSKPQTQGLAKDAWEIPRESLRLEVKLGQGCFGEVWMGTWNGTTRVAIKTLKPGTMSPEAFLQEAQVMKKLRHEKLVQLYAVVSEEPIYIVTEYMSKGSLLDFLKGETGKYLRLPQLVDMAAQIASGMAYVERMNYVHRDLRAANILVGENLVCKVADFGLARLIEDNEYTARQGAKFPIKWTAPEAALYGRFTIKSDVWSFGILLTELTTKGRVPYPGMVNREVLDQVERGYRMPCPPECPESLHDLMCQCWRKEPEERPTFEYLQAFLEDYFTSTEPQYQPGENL

`COCc1cccc2[nH]c(-c3n[nH]c4ncc(-c5ccc(F)nc5)cc34)nc12` [Cpd 71, 5-(6-fluoro-pyridin-3-yl)-3-(4-methoxymethyl-1H-benzoimidazol-2-yl)-1H-pyrazolo[3,4-b]pyridine]: the pIC50 in the experiment on HCT-116 colon carcinoma is 6.55; in the experiment with A375 malignant melanoma, 6.83; in experiment [1], 5.65; at HER2, < 4.00; against Lyn kinase, 5.05; on RET, < 4.00. For the same molecule, the pIC50 against c-Src kinase is 6.56; against Aurora-A, < 5.00; against CDK1, 6.43; on VEGF-R2, ~6.00.

For the molecule `CN(C)c1ccc(NC(=O)c2cccc3[nH]c(-c4n[nH]c5ncc(-c6cncc7ccccc67)cc45)nc23)cc1` [Cpd 49, 2-(5-isoquinolin-4-yl-1H-pyrazolo[3,4-b]pyridin-3-yl)-1H-benzoimidazole-4-carboxylic acid (4-dimethylamino-phenyl)-amide], the pIC50 in the experiment on HCT-116 colon carcinoma is 6.37; in the experiment on A375 malignant melanoma it was 6.52; in experiment [1], 6.48; at HER2, < 4.00; at Lyn kinase it was 8.36; on RET, ~6.00. Also, the pIC50 against c-Src kinase is 8.95; against Aurora-A it was 6.81; against CDK1 it was 7.19; against VEGF-R2, < 5.00.

In the case of `COCc1cccc2[nH]c(-c3n[nH]c4ncc(-c5cncc(CNC(C)C)c5)cc34)nc12` [Cpd 43, isopropyl-{5-[3-(4-methoxymethyl-1H-benzoimidazol-2-yl)-1H-pyrazolo[3,4-b]pyridin-5-yl]-pyridin-3-ylmethyl}-amine], the pIC50 is 6.88 in the experiment with HCT-116 colon carcinoma; 6.78 with A375 malignant melanoma; 6.75 in [1]; < 5.00 against HER2; 6.88 against Lyn kinase; 5.65 on RET. Further, the pIC50 against c-Src kinase was 6.08; on Aurora-A, 5.18; against CDK1, 7.54; at VEGF-R2 it was 6.17.

For the molecule `COCc1cccc2[nH]c(-c3nn(C)c4ncc(-c5cncc6ccccc56)cc34)nc12` [Cpd 33, 4-[3-(4-methoxymethyl-1H-benzoimidazol-2-yl)-1-methyl-1H-pyrazolo[3,4-b]pyridin-5-yl]-isoquinoline], the pIC50 in the experiment with HCT-116 colon carcinoma is 6.69; with A375 malignant melanoma, 6.59; in [1], 5.93; against HER2 it was < 4.00; against Lyn kinase, 5.94; against RET, < 4.00. In addition, the pIC50 against c-Src kinase was 5.93; on Aurora-A, ~4.00; against CDK1, 6.91; at VEGF-R2, < 4.00.

For `COCc1cccc2[nH]c(-c3n[nH]c4ncc(-c5cncc(CNC(C)C)c5C)cc34)nc12` [Cpd 58, isopropyl-{5-[3-(4-methoxymethyl-1H-benzoimidazol-2-yl)-1H-pyrazolo[3,4-b]pyridin-5-yl]-4-methyl-pyridin-3-ylmethyl}-amine], the pIC50 in the experiment on HCT-116 colon carcinoma is 6.34; in the experiment on A375 malignant melanoma, 6.78; in experiment [1] it was 5.57; against HER2 it was < 4.00; at Lyn kinase, 6.28; against RET, < 5.00. For the same molecule, the pIC50 on c-Src kinase was 6.19; at Aurora-A it was 4.91; at CDK1, 6.47; against VEGF-R2, 5.41.

As for `COCc1cccc2[nH]c(-c3n[nH]c4ncc(-c5cncc(CO)c5)cc34)nc12` [Cpd 44, {5-[3-(4-methoxymethyl-1H-benzoimidazol-2-yl)-1H-pyrazolo[3,4-b]pyridin-5-yl]-pyridin-3-yl}-methanol], the pIC50 was 6.89 with HCT-116 colon carcinoma; 6.45 in the experiment with A375 malignant melanoma; 6.11 in experiment [1]; < 4.00 at HER2; 6.42 against Lyn kinase; ~5.00 on RET. Moreover, the pIC50 against c-Src kinase was 6.54; on Aurora-A, < 6.00; at CDK1, 7.05; on VEGF-R2, 6.47.

Turning to `CCN(CC)Cc1cccc2[nH]c(-c3n[nH]c4ncc(-c5cccnc5)cc34)nc12` [Cpd 52, diethyl-[2-(5-pyridin-3-yl-1H-pyrazolo[3,4-b]pyridin-3-yl)-1H-benzoimidazol-4-ylmethyl]-amine], the pIC50 in the experiment on HCT-116 colon carcinoma is 6.46; in the experiment with A375 malignant melanoma it was 6.61; in experiment [1], 6.34; against HER2, < 4.00; at Lyn kinase it was 6.52; against RET, ~5.00. Further, the pIC50 on c-Src kinase is 6.24; against Aurora-A, 5.44; against CDK1 it was 7.61; on VEGF-R2, 5.99.

On to `COCc1cccc2[nH]c(-c3n[nH]c4ncc(-c5cncc(OC)c5)cc34)nc12` [Cpd 64, 3-(4-methoxymethyl-1H-benzoimidazol-2-yl)-5-(5-methoxy-pyridin-3-yl)-1H-pyrazolo[3,4-b]pyridine], for which the pIC50 with HCT-116 colon carcinoma was 7.58; in the experiment with A375 malignant melanoma it was 7.95; in experiment [1], 5.81; against HER2 it was < 4.00; against Lyn kinase, 5.39; against RET, < 4.00. The pIC50 was 6.21 against c-Src kinase, ~5.00 at Aurora-A, 7.10 on CDK1 and 6.80 on VEGF-R2.

As for `CNCc1cncc(-c2cnc3[nH]nc(-c4nc5c(COC)cccc5[nH]4)c3c2)c1` [Cpd 56, {5-[3-(4-methoxymethyl-1H-benzoimidazol-2-yl)-1H-pyrazolo[3,4-b]pyridin-5-yl]-pyridin-3-ylmethyl}-methyl-amine], the pIC50 in the experiment on HCT-116 colon carcinoma was 6.50; with A375 malignant melanoma, 6.57; in experiment [1] it was 6.34; against HER2, < 4.00; on Lyn kinase, 5.97; against RET, ~6.00. Moreover, the pIC50 against c-Src kinase is 6.05; at Aurora-A, < 6.00; at CDK1, 8.60; against VEGF-R2, 6.19.
